Source: article PMC3878827, “Synthesis and biological characterisation of ^18F-SIG343 and ^18F-SIG353, novel and high selectivity σ2 radiotracers, for tumour imaging properties” (EJNMMI Research, 2013)

Tests used:
[1] = Biodistribution studies in A375 tumour-bearing mice; assay type: in vivo, Balb/C nude mice; settings: for Biodistribution, Blood / Biodistribution, Brain / Biodistribution, Femur / Biodistribution, Heart / Biodistribution, Kidneys / Biodistribution, Liver / Biodistribution, Lungs / Biodistribution, Ovaries / Biodistribution, Pancreas / Biodistribution, Spleen / Biodistribution, Tumour: i.v., ± SEM, n = 5
Experimental: (§1) Female Balb/C nude mice aged 5 to 6 weeks old were obtained from the Animal Resource Centre (Perth, Australia). The animals were kept at a constant temperature of 22°C ± 2°C on a 12/12 h light/dark cycle with lights on at 09:00 am. Food and water were freely available. After a week of acclimatisation, mice were injected subcutaneously in the left flank with 1 × 10^6 A375 human amelanotic melanoma cells, in 100 μL of Ca^2+/Mg^2+-free phosphate buffered saline. The procedure was performed without anaesthetic. For in vivo studies, A375 tumour-bearing mice were used 26 days after tumour inoculation.
Tumour-bearing mice were used to examine the tissue distribution of radioactivity after intravenous injection into the tail vein of 1 MBq of ^18F-SIG343 or ^18F-SIG353 in 100 μL of saline. At 15, 30, 60, and 120 min post injection of the radiotracer, groups of mice (n = 5) were sacrificed by CO2 administration followed by cervical […] and dissection. Selected organs were weighed, and the radioactivity was measured using a γ-counter. The percentage of injected dose (%ID) was calculated by comparison with suitable dilutions of the injected dose. Radioactivity concentrations were expressed as percentage of injected dose per gram of wet tissue (%ID/g), assuming a uniform density of 1 g/cm^3. Data were corrected for the radioactivity decay and tail injected dose and normalised for the standard mouse body weight (20 g). The remaining activity in the carcass was also determined in order to obtain the total activity in the mouse (background activity) at each time point.
Selected tumour-to-organ (tumour-to-blood and tumour-to-muscle) uptake ratios (TORs), were calculated by dividing the tumour radioactivity concentration (%ID/g) by the radioactivity concentration in the respective organ at time t. Comparisons of organ radioactivity concentrations (%ID/g) and TORs in the biodistribution studies or %ID/cc in PET imaging studies between the two radiotracers were performed using separate unpaired, two-tailed Student's t tests, matched organs and time points.

σ2 receptor = target: T1, σ2 receptor (Mus musculus, UniProt Q8VD00); experiment: In vivo blocking studies in A375 tumour-bearing mice; design: species or system Balb/C nude mice; settings: unlabelled SIG353-treated group, 1 mg/kg, 30 min p.i.
T1 construct: from tissue; host or cells: organs of Balb/C nude mice in vivo; tumour xenograft of A375 human amelanotic melanoma cells
T1 sequence (Q8VD00 1-176): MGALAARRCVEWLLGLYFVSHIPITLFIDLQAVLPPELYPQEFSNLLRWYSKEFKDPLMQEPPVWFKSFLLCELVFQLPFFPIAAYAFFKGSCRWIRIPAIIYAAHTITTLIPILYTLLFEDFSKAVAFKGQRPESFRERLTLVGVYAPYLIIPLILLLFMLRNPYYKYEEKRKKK
Experimental: as §1
Blocking studies were performed to investigate the specific uptake of the tracer via σ2 receptor mechanism. […] Control mice received saline only. Five minutes after injection of the blocking drug, ^18F-SIG343 or ^18F-SIG353 (1 MBq/100 μL of saline) was injected, and groups of mice (n = 5) were sacrificed 30 min post injection of the radiotracer. Organs were processed as described for the biodistribution study. Radioactivity concentrations in the organs in the treatment groups were compared to that measured in control mice.

Q: Which results are given for `COc1cc2c(cc1OC)CN(CCCCN1C(=O)c3ccc([18F])cc3C1=O)CC2` [^18F-SIG343]?
A: Biodistribution, Blood ([1]; 15 min post injection): 0.9 ± 0.1 %ID/g; Biodistribution, Brain ([1]; 15 min post injection): 9.6 ± 0.2^ *** %ID/g; Biodistribution, Femur ([1]; 15 min post injection): 4.5 ± 0.4 %ID/g; Biodistribution, Heart ([1]; 15 min post injection): 5.5 ± 0.4 %ID/g; Biodistribution, Kidneys ([1]; 15 min post injection): 26.1 ± 0.6 %ID/g; Biodistribution, Liver ([1]; 15 min post injection): 16.0 ± 0.9^ ** %ID/g; Biodistribution, Lungs ([1]; 15 min post injection): 30.3 ± 1.2^ *** %ID/g; Biodistribution, Ovaries ([1]; 15 min post injection): 10.8 ± 1.8 %ID/g; Biodistribution, Pancreas ([1]; 15 min post injection): 42.9 ± 2.8^ * %ID/g; Biodistribution, Spleen ([1]; 15 min post injection): 14.6 ± 1.2 %ID/g; Biodistribution, Tumour ([1]; 15 min post injection): 3.1 ± 0.5 %ID/g; Biodistribution, Blood ([1]; 30 min post injection): 0.7 ± 0.04 %ID/g; Biodistribution, Brain ([1]; 30 min post injection): 8.8 ± 0.6^ *** %ID/g; Biodistribution, Femur ([1]; 30 min post injection): 4.3 ± 0.2 %ID/g; Biodistribution, Heart ([1]; 30 min post injection): 3.5 ± 0.2^ ** %ID/g; Biodistribution, Kidneys ([1]; 30 min post injection): 19.8 ± 0.9^ *** %ID/g; Biodistribution, Liver ([1]; 30 min post injection): 21.9 ± 0.8^ *** %ID/g; Biodistribution, Lungs ([1]; 30 min post injection): 17.4 ± 0.7^ *** %ID/g; Biodistribution, Ovaries ([1]; 30 min post injection): 14.0 ± 2.2 %ID/g; Biodistribution, Pancreas ([1]; 30 min post injection): 50.2 ± 2.0^ *** %ID/g; Biodistribution, Spleen ([1]; 30 min post injection): 15.2 ± 1.1^ * %ID/g; Biodistribution, Tumour ([1]; 30 min post injection): 3.0 ± 0.1^ * %ID/g; Biodistribution, Blood ([1]; 60 min post injection): 0.6 ± 0.1 %ID/g; Biodistribution, Brain ([1]; 60 min post injection): 7.1 ± 0.4^ *** %ID/g; Biodistribution, Femur ([1]; 60 min post injection): 3.8 ± 0.1 %ID/g; Biodistribution, Heart ([1]; 60 min post injection): 1.9 ± 0.04^ ** %ID/g; Biodistribution, Kidneys ([1]; 60 min post injection): 12.0 ± 0.6^ ** %ID/g; Biodistribution, Liver ([1]; 60 min post injection): 15.2 ± 1.1^ *** %ID/g; Biodistribution, Lungs ([1]; 60 min post injection): 9.9 ± 0.3^ *** %ID/g; Biodistribution, Ovaries ([1]; 60 min post injection): 13.5 ± 2.2 %ID/g; Biodistribution, Pancreas ([1]; 60 min post injection): 64.4 ± 3.5^ *** %ID/g; Biodistribution, Spleen ([1]; 60 min post injection): 12.8 ± 0.9^ *** %ID/g; Biodistribution, Tumour ([1]; 60 min post injection): 3.5 ± 0.3^ * %ID/g; Biodistribution, Blood ([1]; 120 min post injection): 0.4 ± 0.01 %ID/g; Biodistribution, Brain ([1]; 120 min post injection): 5.2 ± 0.7^ *** %ID/g; Biodistribution, Femur ([1]; 120 min post injection): 3.2 ± 0.1 %ID/g; Biodistribution, Heart ([1]; 120 min post injection): 1.1 ± 0.1 %ID/g; Biodistribution, Kidneys ([1]; 120 min post injection): 7.5 ± 0.4 %ID/g; Biodistribution, Liver ([1]; 120 min post injection): 19.8 ± 0.9^ * %ID/g; Biodistribution, Lungs ([1]; 120 min post injection): 5.0 ± 0.3 %ID/g; Biodistribution, Ovaries ([1]; 120 min post injection): 11.5 ± 1.4 %ID/g; Biodistribution, Pancreas ([1]; 120 min post injection): 61.7 ± 3.4^ *** %ID/g; Biodistribution, Spleen ([1]; 120 min post injection): 8.5 ± 0.2^ *** %ID/g; Biodistribution, Tumour ([1]; 120 min post injection): 3.9 ± 0.2 %ID/g; Tumour-to-blood uptake ratio ([1]; at 120 min): eight- to ninefold; Tumour-to-muscle uptake ratio ([1]; at 120 min): 4

Q: For `COc1cc2c(cc1OC)CN(CCCCCN1C(=O)c3ccc([18F])cc3C1=O)CC2` [^18F-SIG353], which “Increase (↑) of radiotracer uptake in pancreas versus control” value (σ2 receptor) is on record?
A: 37%

Q: And the “Biodistribution, Blood” value ([1]; 15 min post injection)?
A: 1.2 ± 0.03 %ID/g

Q: And the “Biodistribution, Brain” value ([1]; 15 min post injection)?
A: 4.4 ± 0.2 %ID/g

Q: And the “Biodistribution, Femur” value ([1]; 15 min post injection)?
A: 5.3 ± 0.3 %ID/g

Q: And the “Biodistribution, Heart” value ([1]; 15 min post injection)?
A: 4.5 ± 0.2 %ID/g

Q: What about the “Biodistribution, Kidneys” value ([1]; 15 min post injection) of the same compound?
A: 23.4 ± 2.0 %ID/g

Q: What about the “Biodistribution, Liver” value ([1]; 15 min post injection) of the same compound?
A: 23.5 ± 2.0 %ID/g

Q: What about the “Biodistribution, Lungs” value ([1]; 15 min post injection) of the same compound?
A: 17.4 ± 0.5 %ID/g

Q: What about the “Biodistribution, Ovaries” value ([1]; 15 min post injection) of the same compound?
A: 10.0 ± 0.9 %ID/g

Q: What about the “Biodistribution, Pancreas” value ([1]; 15 min post injection) of the same compound?
A: 56.4 ± 4.7 %ID/g

Q: And the “Biodistribution, Spleen” value ([1]; 15 min post injection)?
A: 15.7 ± 1.1 %ID/g

Q: What about the “Biodistribution, Tumour” value ([1]; 15 min post injection) of the same compound?
A: 3.8 ± 0.3 %ID/g

Q: What about the “Biodistribution, Blood” value ([1]; 30 min post injection) of the same compound?
A: 1.0 ± 0.1 %ID/g

Q: What about the “Biodistribution, Brain” value ([1]; 30 min post injection) of the same compound?
A: 2.3 ± 0.1 %ID/g

Q: And the “Biodistribution, Femur” value ([1]; 30 min post injection)?
A: 4.7 ± 0.2 %ID/g

Q: And the “Biodistribution, Heart” value ([1]; 30 min post injection)?
A: 2.5 ± 0.1 %ID/g

Q: What about the “Biodistribution, Kidneys” value ([1]; 30 min post injection) of the same compound?
A: 13.3 ± 0.8 %ID/g

Q: What about the “Biodistribution, Liver” value ([1]; 30 min post injection) of the same compound?
A: 33.0 ± 1.8 %ID/g

Q: What about the “Biodistribution, Lungs” value ([1]; 30 min post injection) of the same compound?
A: 8.6 ± 0.4 %ID/g

Q: What about the “Biodistribution, Ovaries” value ([1]; 30 min post injection) of the same compound?
A: 11.8 ± 1.5 %ID/g

Q: And the “Biodistribution, Pancreas” value ([1]; 30 min post injection)?
A: 72.8 ± 2.4 %ID/g

Q: What about the “Biodistribution, Spleen” value ([1]; 30 min post injection) of the same compound?
A: 12.0 ± 0.6 %ID/g

Q: What about the “Biodistribution, Tumour” value ([1]; 30 min post injection) of the same compound?
A: 3.8 ± 0.3 %ID/g

Q: And the “Biodistribution, Blood” value ([1]; 60 min post injection)?
A: 0.7 ± 0.02 %ID/g

Q: And the “Biodistribution, Brain” value ([1]; 60 min post injection)?
A: 1.3 ± 0.01 %ID/g

Q: And the “Biodistribution, Femur” value ([1]; 60 min post injection)?
A: 3.8 ± 0.2 %ID/g

Q: And the “Biodistribution, Heart” value ([1]; 60 min post injection)?
A: 1.7 ± 0.02 %ID/g

Q: What about the “Biodistribution, Kidneys” value ([1]; 60 min post injection) of the same compound?
A: 8.7 ± 0.3 %ID/g

Q: And the “Biodistribution, Liver” value ([1]; 60 min post injection)?
A: 32.6 ± 1.0 %ID/g

Q: And the “Biodistribution, Lungs” value ([1]; 60 min post injection)?
A: 6.1 ± 0.1 %ID/g

Q: What about the “Biodistribution, Ovaries” value ([1]; 60 min post injection) of the same compound?
A: 9.6 ± 1.5 %ID/g

Q: What about the “Biodistribution, Pancreas” value ([1]; 60 min post injection) of the same compound?
A: 94.3 ± 4.2 %ID/g

Q: And the “Biodistribution, Spleen” value ([1]; 60 min post injection)?
A: 7.7 ± 0.4 %ID/g

Q: And the “Biodistribution, Tumour” value ([1]; 60 min post injection)?
A: 4.6 ± 0.2 %ID/g

Q: And the “Biodistribution, Blood” value ([1]; 120 min post injection)?
A: 0.7 ± 0.03 %ID/g

Q: What about the “Biodistribution, Brain” value ([1]; 120 min post injection) of the same compound?
A: 0.8 ± 0.02 %ID/g

Q: What about the “Biodistribution, Femur” value ([1]; 120 min post injection) of the same compound?
A: 3.9 ± 0.1 %ID/g

Q: What about the “Biodistribution, Heart” value ([1]; 120 min post injection) of the same compound?
A: 1.3 ± 0.1 %ID/g

Q: What about the “Biodistribution, Kidneys” value ([1]; 120 min post injection) of the same compound?
A: 7.1 ± 0.2 %ID/g

Q: What about the “Biodistribution, Liver” value ([1]; 120 min post injection) of the same compound?
A: 24.1 ± 1.4 %ID/g

Q: And the “Biodistribution, Lungs” value ([1]; 120 min post injection)?
A: 4.7 ± 0.2 %ID/g

Q: What about the “Biodistribution, Ovaries” value ([1]; 120 min post injection) of the same compound?
A: 12.2 ± 3.1 %ID/g

Q: And the “Biodistribution, Pancreas” value ([1]; 120 min post injection)?
A: 119.2 ± 1.6 %ID/g

Q: And the “Biodistribution, Spleen” value ([1]; 120 min post injection)?
A: 5.5 ± 0.2 %ID/g

Q: And the “Biodistribution, Tumour” value ([1]; 120 min post injection)?
A: 4.8 ± 0.4 %ID/g

Q: And the Tumour-to-blood uptake ratio ([1]; at 120 min)?
A: eight- to ninefold
